Type in all cases: cell-based
Assay [1] relates to NCI-H23. Put plainly: MECP in cancer cell line. As to conditions: Homo sapiens. The method, then: (§1) Six lung cancer cell lines (NCI-H23, NCI-H460, NCI-H596, NCI-H2170, Calu-6 and A549), two colon cancer cell lines (HCT116 and SW460), one breast cancer cell line MDA-MB-231, one gastric cancer cell line NCI-N87, one prostate cancer cell line DU145, one cervical cancer cell line Hela, and one glioblastoma cell line T98G were obtained from ATCC. The T2 HCC cell line was derived from a mouse liver cancer model initiated by a transgene of MYC. All cell lines were cultured in DMEM (Gibco, Cleveland, TN, USA) supplemented with 5% fetal bovine serum (Gibco), penicillin (100 U/mL)—streptomycin (100 μg/mL) (Gibco, Cat. No. 15140-122), 2 mM L-glutamine (Gibco, 200 mM solution, Cat. No. 25030081), and 1 mM sodium pyruvate (Gibco, 100 mM solution, Cat. No. 11360070) at 37° C. in a humidified incubator that was maintained at 5% CO2. […]

Assay [2] deals with NCI-N87. Put plainly: MECP in cancer cell line. As to conditions: Homo sapiens. As for the experimental part:
as §1

Assay [3] deals with T2 HCC. Put plainly: MECP in cancer cell line. To be noted: Mus musculus. As for the experimental part: (§2) Six lung cancer cell lines (NCI-H23, NCI-H460, NCI-H596, NCI-H2170, Calu-6 and A549), two colon cancer cell lines (HCT116 and SW460), one breast cancer cell line MDA-MB-231, one gastric cancer cell line NCI-N87, one prostate cancer cell line DU145, one cervical cancer cell line Hela, and one glioblastoma cell line T98G were obtained from ATCC. The T2 HCC cell line was derived from a mouse liver cancer model initiated by a transgene of MYC. All cell lines were cultured in DMEM (Gibco, Cleveland, TN, USA) supplemented with 5% fetal bovine serum (Gibco), penicillin (100 U/mL)—streptomycin (100 μg/mL) (Gibco, Cat. No. 15140-122), 2 mM L-glutamine (Gibco, 200 mM solution, Cat. No. 25030081), and 1 mM sodium pyruvate (Gibco, 100 mM solution, Cat. No. 11360070) at 37° C. in a humidified incubator that was maintained at 5% CO2.
(§3) We have previously developed a mechanism-informed phenotypic screening assay to identify novel antimitotic agents. Equipped with a prior understanding of the versatile functions of the chromosomal passenger protein (CPP) complex in orchestrating karyokinesis and cytokinesis, the screening assay is to score for phenotypes typically seen when the CPP complex is disabled. Specifically, the parameters for a positive hit are a temporary elevation of mitotic index (MI) at 24 hours of drug treatment and an accumulation of polyploid cells at 48 hours of drug treatment, indicative of mitotic arrest and cytokinetic failure respectively. These parameters exclude compounds that elicit only a prolonged arrest of cells in mitosis, a phenotype typically provoked by spindle toxins. The screening procedure is briefly summarized here. RPEMYC^H2B-GFP cells engineered to express a Histone 2B-EGFP fusion protein were passaged as batches of 96-well plates, 18-24 hours before exposure to the chemical compounds of the present disclosure at concentrations from 1 nM to 30 μM. At 24, 48 or 72 hours after initiation of treatment, cells were analyzed for either an arrest in mitosis or a change in DNA content by GE IN-Cell Analyzer 2000. As set forth in Table 2 below, a value of greater than or equal to 1 nM and less than or equal to 1.0 μM is marked “A”; a value greater than 1.00 μM and less than or equal to 10.0 μM is marked “B”; a value greater than 10.0 μM and less than or equal to 30.0 μM is marked “C”; and a value greater than 30.0 μM is marked “D.”

For assay [4], the system named is SW480. Put plainly: MECP in cancer cell line. To be noted: Homo sapiens. The method, then: as §2, §3
Assay [5] has as its system Hela. In words: MECP in cancer cell line. To be noted: Homo sapiens. The method, then:
as §2, §3

Assay [6] has as its system A549. Put plainly: MECP in cancer cell line. As to conditions: Homo sapiens. The method, then: as §2, §3
Assay [7] deals with HCT116. In words: MECP in cancer cell line. As to conditions: Homo sapiens, HCT-116. The method, then: as §2, §3
Assay [8] relates to MDA-MB-231. Put plainly: MECP in cancer cell line. To be noted: Homo sapiens. The method, then: as §2, §3
For a further assay, the system named is RPEMYC^H2B-GFP cells. Put plainly: Phenotypic screening assay (mitotic arrest, polyploidy). To be noted: 1 nM to 30 μM; for IC50: read-out: Proliferative arrest (>50%). As for the experimental part:
as §3

Assay [9] deals with T2 HCC. In words: MTT assay of cellular proliferation. To be noted: Mus musculus, 50% inhibition of cellular proliferation. The method, then:
as §2
(§4) The MTT assay measures cellular metabolic activity as a proxy for cell viability and involves the conversion of the water-soluble yellow dye MTT [3-(4,5-dimethylthiazol-2-yl)-2,5-diphenyltetrazolium bromide] into an insoluble purple formazan by the action of mitochondrial reductase. Formazan is then solubilized and its concentration is determined by measuring the optical density (OD) value at a wavelength of 570 nm. The value is in proportional to the number of live cells with excellent linearity up to ˜10^6 cells per well. The MTT assay was used to determine the EC50 value, the concentration of a compound that leads to 50% inhibition of cellular proliferation. Briefly, cells were split when growing to the mid-Log phase. Cells in 100 μL of culture medium were seeded into each well of 96-well microplates and cultivated for 15-24 hours to reach a confluence of 20-30% and were then exposed to drugs at concentrations ranging from 1 nM to 30 μM. At the endpoint, 20 μL of a MTT stock solution in DMSO (5 mg/mL) was added to each well that contains 100 μL of DMEM. The microplates were left in the cell culture incubator for 3-4 h before subjected to solubilization and determination of formazan at A570 in a microplate reader (BioTek ELX808iu). […] Therefore, these compounds might hold a broad utility in the treatment of a large variety of human malignancies.
In general terms: Tetrazolium assays rely on reduction of a dye to a coloured formazan, in cell work by metabolically active cells.

For assay [10], the system named is SW480. Put plainly: MTT assay of cellular proliferation. As to conditions: Homo sapiens, 50% inhibition of cellular proliferation. As for the experimental part: as §2, §4
Assay [11] relates to Hela. Put plainly: MTT assay of cellular proliferation. As to conditions: Homo sapiens, 50% inhibition of cellular proliferation. The method, then:
as §2, §4

Assay [12] relates to NCI-H23. Put plainly: MTT assay of cellular proliferation. To be noted: Homo sapiens, 50% inhibition of cellular proliferation. The method, then:
as §2, §4

Assay [13] has as its system A549. In words: MTT assay of cellular proliferation. To be noted: Homo sapiens, 50% inhibition of cellular proliferation. The method, then:
as §2, §4

For assay [14], the system named is HCT116. In words: MTT assay of cellular proliferation. As to conditions: Homo sapiens, HCT-116, 50% inhibition of cellular proliferation. The method, then:
as §2, §4

Assay [15] has as its system MDA-MB-231. In words: MTT assay of cellular proliferation. To be noted: Homo sapiens; MDA-MB-231, MTT, 50% inhibition of cellular proliferation. The method, then:
as §2, §4

Assay [16] has as its system NCI-N87. Put plainly: MTT assay of cellular proliferation. To be noted: Homo sapiens, 50% inhibition of cellular proliferation. The method, then: as §2, §4
[17] abbreviates: read-out: Min. Effective conc. for Polyploidy (≥5%).

Like-named read-outs stand apart in the source and are kept apart here. A value given as a limit tells only on which side of the number the result lay.

Usually EC50 stands for the concentration giving half of the maximal effect. Lower therefore signals higher potency in that assay. As to `COc1cc(Oc2ccnc3cc(OC)c(C(N)=O)cc23)cc(-n2cccn2)c1` [Compound 30, 7-methoxy-4-(3-methoxy-5-(1H-pyrazol-1-yl)phenoxy)quinoline-6-carboxamide], the minimal effective concentration in the assay on NCI-H23 [1], in the assay with NCI-N87 [2], with T2 HCC [3], in the assay with SW480 [4], in the assay with Hela [5] and in the assay on A549 [6] was 0.001 to 1 µM each time. The minimal effective concentration in the assay with HCT116 [7], with MDA-MB-231 [8], in the assay on RPEMYC^H2B-GFP cells (setting [17]) and in the assay with RPEMYC^H2B-GFP cells (read-out: Mitotic Arrest (≥5%)) was 0.001 to 1 µM each time. Also, in the assay with RPEMYC^H2B-GFP cells, the “Min. Effective conc. for Polyploidy (≥5%)” value is recorded as “D (a value greater than 30.0 μM)”. Moreover, the “Mitotic Arrest (≥5%)” value with RPEMYC^H2B-GFP cells is reported as “D (a value greater than 30.0 μM)”. Also, in the assay on RPEMYC^H2B-GFP cells, the “Proliferative arrest (>50%)” value is reported as “D (a value greater than 30.0 μM)”. In addition, the “Along with Cell Death” value in the assay with RPEMYC^H2B-GFP cells (listed as 25) is given as “D (a value greater than 30.0 μM)”. Further, the IC50 in the assay on RPEMYC^H2B-GFP cells lay within 1 to 1000 nM. The EC50 in the assay with T2 HCC [9], in the assay with SW480 [10], in the assay with Hela [11], with NCI-H23 [12], in the assay on A549 [13] and in the assay with HCT116 [14] was 1 to 1000 nM each time. Besides, the EC50 in the assay with MDA-MB-231 [15] and with NCI-N87 [16] was 1 to 1000 nM throughout.

As to `COc1cc(NC(C)=O)cc(Oc2ccnc3ccccc23)c1` [Compound 14, N-(3-methoxy-5-(quinolin-4-yloxy)phenyl)acetamide], the minimal effective concentration with NCI-H23 [1], in the assay with NCI-N87 [2], in the assay on T2 HCC [3], with SW480 [4], in the assay on Hela [5] and in the assay on A549 [6] was 0.001 to 1 µM throughout. Further, the minimal effective concentration in the assay with HCT116 [7], in the assay on MDA-MB-231 [8], in the assay with RPEMYC^H2B-GFP cells (setting [17]) and in the assay with RPEMYC^H2B-GFP cells (read-out: Mitotic Arrest (≥5%)) was 0.001 to 1 µM throughout. The IC50 in the assay on RPEMYC^H2B-GFP cells was 1 to 1000 nM. The EC50 with T2 HCC [9], in the assay with SW480 [10], in the assay with Hela [11], in the assay with NCI-H23 [12], with A549 [13] and in the assay with HCT116 [14] was 1 to 1000 nM in each case. For the same compound, the EC50 in the assay on MDA-MB-231 [15] and with NCI-N87 [16] was 1 to 1000 nM in each case.

Take `COc1cc(OC)cc(Oc2ccnc3cc(OC)c(Br)cc23)c1` [Compound 89, 6-bromo-4-(3,5-dimethoxyphenoxy)-7-methoxyquinone]: the minimal effective concentration with RPEMYC^H2B-GFP cells (setting [17]) and in the assay with RPEMYC^H2B-GFP cells (read-out: Mitotic Arrest (≥5%)) was 0.001 to 1 µM in each case.

Turning to `COc1cc(Oc2ccnc3cc(OC)c(C(N)=O)cc23)cc(-n2ccc(C)n2)c1` [Compound 85, 7-methoxy-4-(3-methoxy-5-(3-methyl-1H-pyrazol-1-yl)phenoxy)quinoline-6-carboxamide], the minimal effective concentration in the assay with RPEMYC^H2B-GFP cells (setting [17]) and in the assay with RPEMYC^H2B-GFP cells (read-out: Mitotic Arrest (≥5%)) was 0.001 to 1 µM each time.

As for `CNC(=O)c1cc(OC)cc(Oc2ccnc3cc(OC)c(Br)cc23)c1` [Compound 90, 3-((6-bromo-7-methoxyquinolin-4-yl)oxy)-5-methoxy-N-methylbenzamide], the minimal effective concentration with RPEMYC^H2B-GFP cells (setting [17]) and in the assay with RPEMYC^H2B-GFP cells (read-out: Mitotic Arrest (≥5%)) was 1 to 10 µM in each case.

For `COc1cc(NC(C)=O)cc(Oc2ccnc3ccc(C(=O)O)cc23)c1` [Compound 52, 4-(3-Acetamido-5-methoxyphenoxy) quinoline-6-carboxylic acid], the minimal effective concentration fell in the range of 10 to 30 µM with RPEMYC^H2B-GFP cells (setting [17]) and 1 to 10 µM in the assay on RPEMYC^H2B-GFP cells (read-out: Mitotic Arrest (≥5%)). The IC50 in the assay on RPEMYC^H2B-GFP cells is 10000 to 30000 nM.

Consider `[2H]c1cc(Oc2cc(OC)cc([N+](=O)[O-])c2)c2cc(Br)ccc2n1` [Compound 98], for which the minimal effective concentration in the assay with RPEMYC^H2B-GFP cells (setting [17]) and in the assay on RPEMYC^H2B-GFP cells (read-out: Mitotic Arrest (≥5%)) was 1 to 10 µM each time.

On to `COc1cc(Oc2ncnc3cc(OC)c(OC)cc23)cc(-n2cccn2)c1` [Compound 74, 4-(3-methoxy-5-(1H-pyrazol-1-yl)phenoxy)-6,7-dimethoxyquinazoline], for which the minimal effective concentration with RPEMYC^H2B-GFP cells (setting [17]) and in the assay on RPEMYC^H2B-GFP cells (read-out: Mitotic Arrest (≥5%)) was 10 to 30 µM in each case. In addition, the IC50 in the assay on RPEMYC^H2B-GFP cells fell in the range of 10000 to 30000 nM.

On to `COc1cc(Oc2ncnc3ccccc23)cc(-n2cccn2)c1` [Compound 73, 4-(3-Methoxy-5-(1H-pyrazol-1-yl)phenoxy) quinazoline], for which the minimal effective concentration in the assay on RPEMYC^H2B-GFP cells (setting [17]) and in the assay with RPEMYC^H2B-GFP cells (read-out: Mitotic Arrest (≥5%)) was 10 to 30 µM each time. In addition, the IC50 in the assay with RPEMYC^H2B-GFP cells is 10000 to 30000 nM.

On to `NC(=O)c1ccc2nccc(Oc3cc(Cl)cc(-n4cccn4)c3)c2c1` [Compound 2, 4-(3-chloro-5-(1H-pyrazol-1-yl)phenoxy)quinoline-6-carboxamide], for which the minimal effective concentration with RPEMYC^H2B-GFP cells (setting [17]) and with RPEMYC^H2B-GFP cells (read-out: Mitotic Arrest (≥5%)) was more than 30 µM throughout.
